Test results reported in PMC8522752 (Antimicrobial Agents and Chemotherapy, 2021).
Where two headings read alike, the source gives them in different places.

Tests used:
[1] = Plasma pharmacokinetics in CD-1 mice after oral AT-752; settings: male, CD-1, mouse, in vivo, 420 mg/kg
[2] = Plasma pharmacokinetics in cynomolgus monkeys after oral AT-752
[3] = Plasma pharmacokinetics in Sprague Dawley rats after oral AT-752; settings: male, Sprague Dawley, rat, in vivo, po, 300 mg/kg
[4] = molecular target: DENV NS5 protein (serotype 2) (Dengue virus type 2, UniProt P14340); test: Nucleotide analogue incorporation / RNA elongation assay; type: biochemical, dengue virus serotype 2; settings: for effect on RNA synthesis after incorporation: P10/T20 primer-template, with or without GTP
[5] = system: human mitochondrial DNA-directed RNA polymerase (POLRMT); settings: cited from earlier work
[6] = molecular target: human cellular DNA-dependent DNA polymerase α; settings: read-out: estimated IC50; cited from earlier work
[7] = molecular target: human cellular DNA-dependent DNA polymerase β; settings: read-out: estimated IC50; cited from earlier work
[8] = mice, single oral dose AT-281 50 mg/kg, 12 h, pooled from 3 animals
[9] = rats, single oral dose AT-281 300 mg/kg, 24 h
[10] = molecular target: human cellular DNA-dependent DNA polymerase γ; settings: read-out: estimated IC50; cited from earlier work
[11] = monkeys, single oral dose of AT-752 equivalent to 55 mg/kg AT-281, 12 h
DENV = system: DENV; parameters: method as in PMID 22807519; settings: cited from earlier work
[12] = monkeys, doses up to 1,000 mg/day for 14 days; S. S. Good, unpublished data
[13] = parameters: dose or concentration left out as unconfirmed; settings: rats, doses up to for 14 days; S. S. Good, unpublished data
[14] = Sprague Dawley rat plasma, 10 min of incubation
[15] = cynomolgus monkey plasma, 2 μM, 120 min, 37°C
in vitro = settings: Sprague Dawley, rat, plasma
DENV2 D2Y98P = type: in vivo, AG129 mice
[16] = human plasma, 2 μM, 120 min, 37°C
[17] = Cardiomyocyte assay (CellTiter Glo); type: cell-based; settings: human iPS cardiomyocytes
[18] = male, cynomolgus, cynomolgus monkey, in vivo, po, 300 mg/kg

CNc1nc(N)nc2c1ncn2[C@@H]1O[C@H](CO[P@](=O)(O)N[C@@H](C)C(=O)O)[C@@H](O)[C@@]1(C)F [AT-551]
AUC(0-t) [1]: 58.7 ± 13.3 µM·h
Cmax [1]: 45100 ± 12000 nM
Tmax [1]: 0.5 h
AUC(0-t) [2, 18]: 9.7 ± 2.2 µM·h
Cmax [2, 18]: 2000 ± 800 nM
Tmax [2, 18]: 2 h
AUC(0-t) [3]: 56.5 µM·h
Cmax [3]: 16500 ± 10800 nM

Nc1nc2c(ncn2[C@@H]2O[C@H](COP(=O)(O)OP(=O)(O)OP(=O)(O)O)C[C@H]2O)c(=O)[nH]1 [3′-dGTP, reference compound]
effect on RNA synthesis after incorporation [4]: equivalent profile

C[C@@]1(F)[C@H](O)[C@@H](COP(=O)(O)OP(=O)(O)OP(=O)(O)O)O[C@H]1n1cnc2c(=O)[nH]c(N)nc21 [AT-9010]
effect on mitochondrial integrity / inhibition of POLRMT [5]: not likely to affect mitochondrial integrity or inhibit human mitochondrial DNA-directed RNA polymerase
IC50 [6]: > 100 µM
IC50 [7]: > 100 µM
AT-9010 concentration in PBMCs (mice, 500 mg/kg AT-281 then 250 mg/kg 4 h later, 4 h after the second dose): 0.297 pmol/10^6 cells
AT-9010 concentration in PBMCs [8]: 0.092 pmol/10^6 cells
AT-9010 concentration in PBMCs [9]: 0.439 ± 0.218 pmol/10^6 cells
IC50 [10]: > 100 µM
effect on RNA synthesis after incorporation [4]: immediate chain termination of RNA synthesis
discrimination factor (preference for GTP > AT-9010) ([4]; all four NTPs present, band product intensities at +5 and +7 positions): 12.6 ± 4.3
AT-9010 concentration in PBMCs [11]: 0.070 ± 0.046 pmol/10^6 cells

CC(C)C(=O)OC[C@@]1(N=[N+]=[N-])O[C@@H](n2ccc(N)nc2=O)[C@H](OC(=O)C(C)C)[C@@H]1OC(=O)C(C)C [balapiravir]
viremia in patients infected with DENV (DENV): failed to reduce viremia
antiviral response, cytokine profile and time to fever clearance vs placebo (DENV; tested clinically): no differences between compound and placebo treatment were observed

CNc1nc(N)nc2c1ncn2[C@@H]1O[C@H](CO[P@](=O)(N[C@@H](C)C(=O)OC(C)C)Oc2ccccc2)[C@@H](O)[C@@]1(C)F [AT-752]
safety findings [12]: no safety concerns
safety findings [13]: no safety concerns
drug remaining at first time point [14]: no drug remaining
% of starting concentration remaining [15]: 98.2%
half-life (in vitro): < 3 min
unusual or adverse clinical signs after dosing ([2]; monkeys, oral AT-752 300 mg/kg or 60 mg/kg, observed before and after dosing and at blood collections): no such signs noted
viremia vs vehicle, day 6 pi (DENV2 D2Y98P; AG129 mice, oral 1,000 mg/kg loading 4 h before challenge then 500 mg/kg BID 7 days, P = 0.000014): significantly lower
viremia vs control, day 4 pi (DENV2 D2Y98P; same regimen): did not demonstrate a difference in viremia
survival vs vehicle (Kaplan-Meier) (DENV2 D2Y98P; same regimen, P = 0.0004, Mantel-Cox log rank test): significantly improved the survival
health scores vs vehicle (DENV2 D2Y98P; same regimen, day 4 to day 9 pi, P < 0.001): significantly better health scores
weight loss vs vehicle (DENV2 D2Y98P; same regimen, days 5, 7 and 8 pi, P < 0.001): significantly reduced weight loss
spleen viral load vs control by day 7 pi (DENV2 D2Y98P; same regimen, reduced compared to control): not statistically different
viremia by day 8 pi (DENV2 D2Y98P; same regimen, virus still measurable in all surviving controls, P = 0.0045): cleared in all treated animals
% of starting concentration remaining [16]: 93.5%

COc1cc2nc(N3CCN(C(=O)C4COc5ccccc5O4)CC3)nc(N)c2cc1OC (stereo not drawn) [doxazosin, reference compound]
CC50 at 3 days [17]: 7 µM

C[C@@]1(F)[C@H](O)[C@@H](CO)O[C@H]1n1cnc2c(=O)[nH]c(N)nc21 [AT-273, 2′-fluoro-2′-C-methyl guanosine]
plasma AT-273 concentration (CD-1, mouse, in vivo): 1.35 ± 0.86 nmol/mL
plasma AT-273 concentration (mice, AT-281 1,000 mg/kg loading then 500 mg/kg BID 3 days, 12 h after the first 500-mg/kg dose): 0.67 ± 0.12 nmol/mL
AUC(0-t) [1]: 18.8 ± 6 µM·h
Cmax [1]: 2300 ± 700 nM
AUC(0-t) [2, 18]: 7.8 ± 2.4 µM·h
Cmax [2, 18]: 800 ± 200 nM
AUC(0-t) [3]: 22.9 µM·h
Cmax [3]: 1300 ± 300 nM
Tmax [3]: 8 h
